Test [1] concerns the target Serine/threonine-protein kinase MARK2 (Homo sapiens) (UniProt Q7KZI7). The test can be described thus: Inhibition of T7 bacteriophage fused human MARK2 at 10 uM by KINOMEscan analysis relative to control.
Test [2] addresses Serine/threonine-protein kinase DCLK1 (Homo sapiens) (UniProt O15075). The test can be described thus: Inhibition of T7 bacteriophage fused human DCAMKL1 at 10 uM by KINOMEscan analysis relative to control; values are per cent of control.

The source of these data is ChEMBL document CHEMBL5678810.

Sequence of Serine/threonine-protein kinase DCLK1 (Homo sapiens) (O15075 whole entry, the tested form may be a part): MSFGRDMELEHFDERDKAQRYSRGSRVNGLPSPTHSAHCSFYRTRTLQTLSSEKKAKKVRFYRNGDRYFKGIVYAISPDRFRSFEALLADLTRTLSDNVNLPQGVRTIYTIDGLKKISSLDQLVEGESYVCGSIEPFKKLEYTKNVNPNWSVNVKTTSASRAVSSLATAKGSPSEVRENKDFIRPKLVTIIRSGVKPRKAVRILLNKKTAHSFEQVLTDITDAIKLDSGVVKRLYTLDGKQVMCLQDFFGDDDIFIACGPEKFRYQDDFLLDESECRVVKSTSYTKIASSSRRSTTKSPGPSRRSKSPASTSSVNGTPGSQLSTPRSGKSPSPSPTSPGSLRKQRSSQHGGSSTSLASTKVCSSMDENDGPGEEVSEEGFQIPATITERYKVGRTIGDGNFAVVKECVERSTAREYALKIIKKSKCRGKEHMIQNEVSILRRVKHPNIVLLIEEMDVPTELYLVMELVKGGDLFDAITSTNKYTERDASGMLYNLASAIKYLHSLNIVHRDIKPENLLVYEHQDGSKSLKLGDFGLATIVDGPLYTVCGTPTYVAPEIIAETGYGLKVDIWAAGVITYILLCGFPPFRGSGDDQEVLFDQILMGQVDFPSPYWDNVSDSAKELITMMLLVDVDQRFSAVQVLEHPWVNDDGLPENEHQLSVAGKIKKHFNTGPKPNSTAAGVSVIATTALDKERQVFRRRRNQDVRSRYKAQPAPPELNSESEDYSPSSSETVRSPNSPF
Sequence of Serine/threonine-protein kinase MARK2 (Homo sapiens) (Q7KZI7 whole entry, the tested form may be a part): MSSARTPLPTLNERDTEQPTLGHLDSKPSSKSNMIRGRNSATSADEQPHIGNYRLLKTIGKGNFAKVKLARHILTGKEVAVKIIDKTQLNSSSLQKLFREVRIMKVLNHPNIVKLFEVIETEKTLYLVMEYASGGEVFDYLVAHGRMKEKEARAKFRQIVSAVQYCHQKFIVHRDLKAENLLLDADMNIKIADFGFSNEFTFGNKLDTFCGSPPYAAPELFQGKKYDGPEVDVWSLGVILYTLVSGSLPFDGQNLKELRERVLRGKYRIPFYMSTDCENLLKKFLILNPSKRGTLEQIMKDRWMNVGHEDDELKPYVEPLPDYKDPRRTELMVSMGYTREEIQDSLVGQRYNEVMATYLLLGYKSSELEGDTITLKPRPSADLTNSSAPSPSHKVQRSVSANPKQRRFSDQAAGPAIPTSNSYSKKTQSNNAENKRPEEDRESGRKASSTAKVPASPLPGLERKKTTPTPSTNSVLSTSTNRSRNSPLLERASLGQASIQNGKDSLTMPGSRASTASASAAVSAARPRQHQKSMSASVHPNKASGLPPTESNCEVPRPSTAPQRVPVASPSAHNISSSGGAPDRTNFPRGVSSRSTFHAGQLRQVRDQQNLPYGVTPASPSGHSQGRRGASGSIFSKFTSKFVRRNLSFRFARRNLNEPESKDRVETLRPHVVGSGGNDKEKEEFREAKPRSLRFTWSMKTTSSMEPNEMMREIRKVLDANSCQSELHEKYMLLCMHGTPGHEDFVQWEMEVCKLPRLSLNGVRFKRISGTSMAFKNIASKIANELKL

What is called inhibition is the relative decrease from the control value, in per cent. Read a low inhibition as a response near the control. One may read the residual activity as the activity still measured, relative to the control. Low values mean little activity left, high ones much activity left. In test [1], `COc1cc(N2CCC(N3CCN(C)CC3)CC2)ccc1Nc1ncc2c(n1)N(C)c1ccccc1C(=O)N2C` had an inhibition of 100%. This compound also registered a residual activity in test [2] of 4.2%.
